In patent publication US20040097534A1, “Composition for the protection and regeneration of nerve cells containing berberine derivatives” (EUGENBIO INC., priority 2001, published 2004):
Entries after “also recorded” stand apart in the source; their conditions may differ.

Key:
SH-SY5Y cells [1] = assay: Neurite regeneration in SH-SY5Y cells; type: cell-based, human
Description: Thereafter, the culture was treated with berberine and further cultured for 2 days. The cultured cells were immunostained with nerve cell-specific labeled molecule, and then the number of cells having neurites longer than cell bodies was counted under a confocal microscope. A positive control was treated with bFGF under the same condition as described above to induce the differentiation into nerve cells. In addition, the neuroregenerative effect was examined after berberine together with bFGF was treated. The differentiation degree was measured by double-staining neurites with nerve cell-specific labeled molecule (anti-neurofilament antibody) and FITC-labeled secondary antibody (green), followed by staining cell nuclei with propidium iodide (red). In order to examine the effect of berberine on neurite regeneration, SH-SY5Y cells were used as differentiated nerve cell lines. Retinoic acid inducing neurite growth was used as a positive control.

bcl-2 mRNA = assay: Expression of bcl-2 mRNA in white rat cerebra (RT-PCR); type: in vivo; conditions: berberine 5 mg/kg intraperitoneally
Description: All groups were intraperitoneally injected. RT-PCR was performed to examine the expression of bcl-2 mRNA, which is an anti-apoptosis gene expressed in cerebral tissues. GAPDH mRNA was used as a control group. The expression of GAPDH mRNA was also performed by RT-PCR method.
1 ml of TRI Reagent (Molecular Research Center Inc., USA) was added to 100 mg of cerebral tissue sections, and the mixture was homogenized and then left at room temperature for 10 minutes. 0.1 ml of BCP (Sigma, USA) was added to 1 ml of the homogenized mixture, mixed with each other for 1 minute, and then left at 4° C. for 10 minutes. After the mixture was centrifuged at 12,000 rpm, 4° C. for 15 minutes, the supernatant was added to cold isopropanol and left at a temperature of −20° C. for 16 hours. Thereafter, the supernatant was centrifuged at 12,000 rpm, 4 for 15 minutes to obtain RNA precipitates. The obtained RNA precipitates were washed with DEPC diethylpyrocarbonate)-treated cold ethanol (75%), and dried using SpeedVac. The dried RNA was dissolved in DEPC-treated distilled water. After the concentration and purity of RNA were spectrophotometrically measured at 260 nm, the isolated RNA was stored at a temperature of −20° C. before use. […]
10 μl of amplified PCR product was electrophoresed in a 1.5% agarose gel, and the density was measured using a gel documentation system (Bio-Rad Lab, USA).

[2] = test system: neuromuscular junctions of hindlimb muscles; assay: Regeneration of nerve endings at neuromuscular junctions after sciatic nerve crush; type: in vivo, white rat; conditions: 4 weeks after operation, hindlimb muscle
Excerpt: In order to see whether berberine influences the regeneration of nerve endings in the neuromuscular junctions, 4 weeks after operation, hindlimb muscles connected to sciatic nerves were separated and cryosected. The neuromuscular junctions were stained using beta-tubulin isotypeIII and neurofilament, which are nerve markers.

SH-SY5Y cells [3] = assay: MTT assay, SH-SY5Y survival under serum deprivation-induced stress; type: cell-based, human; conditions: for O.D.: 2 days; for Average (O.D. relative to N2): N2 = 100%
Description: Cell injuries under condition of serum deprivation-induced stress and oxidative stress were measured by MTT assay. For MTT assay, Cells were seeded into N2 medium in an amount of 7.5×10^3 cells, and then a neurotoxin or a nerve growth factor was added thereto to differentiate the cells and then 0.1 volume of 4 mg/ml MTT was further added. The mixture was stored at 37° C. for 3-4 hours. After 100 μl of solubilization buffer was added to the mixture and then stored for 24 hours, O.D. values were measured by ELISA assay.
In order to prepare a stroke-like cell model using SH-SY5Y, the cells were cultured under serum deprivation. […] Retinoic acid, which induces the differentiation of SH-SY5Y as a cell differentiation factor, was used as a positive control. 3 hours before depriving serum, the cells were treated with berberine (0.25˜3 μg). The cells were cultured in chemically defined media (N2) for 2 days to induce nerve regeneration (see, Table 2 and FIG. 4a).

**Q.** How did the length of neurites (SH-SY5Y cells [1]; berberine) turn out when `COc1ccc2cc3[n+](cc2c1OC)CCc1cc2c(cc1-3)OCO2` [Berberine, 7,8,13,13a-tetradihydro-9,10-dimethoxy-2,3-(methylenedioxy) berbinium] was run?
**A.** The length of neurites was “lengthened the length of neurites”.

**Q.** What about the “total number of nerve cells, increase” value (SH-SY5Y cells [1]; berberine) of the same compound?
**A.** Its value is “increased two times; also recorded: doubled”.

**Q.** What about the “Average (%) of differentiated cells” value (SH-SY5Y cells [1]; berberine 0.25 μg/ml) of the same compound?
**A.** Its value is 63.34%.

**Q.** What about the “Number of differentiated cells” value (SH-SY5Y cells [1]; berberine 0.25 μg/ml) of the same compound?
**A.** Its value is 26.51.

**Q.** And the “total average cell numbers” value (SH-SY5Y cells [1]; berberine 0.25 μg/ml)?
**A.** Its value is 39.75.

**Q.** And the “Average (%) of differentiated cells” value (SH-SY5Y cells [1]; berberine 1.5 μg/ml)?
**A.** The value was 71.04%.

**Q.** And the “Number of differentiated cells” value (SH-SY5Y cells [1]; berberine 1.5 μg/ml)?
**A.** The value was 27.89.

**Q.** And the “total average cell numbers” value (SH-SY5Y cells [1]; berberine 1.5 μg/ml)?
**A.** Its value is 38.80.

**Q.** And the “Average (%) of differentiated cells” value (SH-SY5Y cells [1]; berberine 3 μg/ml)?
**A.** The value was 73.95%.

**Q.** And the “Number of differentiated cells” value (SH-SY5Y cells [1]; berberine 3 μg/ml)?
**A.** Its value is 28.64.

**Q.** What about the “total average cell numbers” value (SH-SY5Y cells [1]; berberine 3 μg/ml) of the same compound?
**A.** Its value is 38.60.

**Q.** And the “expression of bcl-2 mRNA in cerebral tissues” value (bcl-2 mRNA)?
**A.** The value was “High bcl-2 mRNA Expression”.

**Q.** And the “expression of bcl-2 mRNA in cerebral tissues” value (bcl-2 mRNA; listed as berberine)?
**A.** The value was “higher than in the control group; also recorded: increased”.

**Q.** And the “regeneration of nerve endings / formation of neuromuscular junctions” value [2]?
**A.** The value was “spread to all muscle fibers; also recorded: reached all muscle fibers to form neuromuscular junctions”.

**Q.** And the O.D. (SH-SY5Y cells [3]; N2 + berberine 0.25 μg/ml)?
**A.** Its O.D. is 0.076.

**Q.** What about the “Average (O.D. relative to N2)” value (SH-SY5Y cells [3]; N2 + berberine 0.25 μg/ml) of the same compound?
**A.** The value was 113%.

**Q.** What about the O.D. (SH-SY5Y cells [3]; N2 + berberine 1.5 μg/ml) of the same compound?
**A.** The O.D. was 0.118.

**Q.** What about the “Average (O.D. relative to N2)” value (SH-SY5Y cells [3]; N2 + berberine 1.5 μg/ml) of the same compound?
**A.** The value was 177%.

**Q.** What about the O.D. (SH-SY5Y cells [3]; N2 + berberine 3 μg/ml) of the same compound?
**A.** Its O.D. is 0.104.

**Q.** And the “Average (O.D. relative to N2)” value (SH-SY5Y cells [3]; N2 + berberine 3 μg/ml)?
**A.** The value was 155%.

**Q.** And the cell survival (SH-SY5Y cells [3]; serum deprivation, berberine 3 μg/ml compared with 1.5 μg/ml)?
**A.** Its cell survival is “somewhat decreased”.

**Q.** What about the “cell survival rate versus control group” value (SH-SY5Y cells [3]; serum deprivation, berberine (1.5 μg/ml elsewhere in the source)) of the same compound?
**A.** Its value is “two times higher”.
